Blank lines part the entries; values can stand above or below the molecule they belong to. Activity calls are given as the source filed them. No cut-off for these calls is given here.
Key:
[1] = molecular target: T1, NAD-dependent protein deacetylase sirtuin-3, mitochondrial (Homo sapiens, UniProt Q9NTG7); experiment: Inhibition of SIRT3 (unknown origin)
T1 sequence (Q9NTG7 whole entry): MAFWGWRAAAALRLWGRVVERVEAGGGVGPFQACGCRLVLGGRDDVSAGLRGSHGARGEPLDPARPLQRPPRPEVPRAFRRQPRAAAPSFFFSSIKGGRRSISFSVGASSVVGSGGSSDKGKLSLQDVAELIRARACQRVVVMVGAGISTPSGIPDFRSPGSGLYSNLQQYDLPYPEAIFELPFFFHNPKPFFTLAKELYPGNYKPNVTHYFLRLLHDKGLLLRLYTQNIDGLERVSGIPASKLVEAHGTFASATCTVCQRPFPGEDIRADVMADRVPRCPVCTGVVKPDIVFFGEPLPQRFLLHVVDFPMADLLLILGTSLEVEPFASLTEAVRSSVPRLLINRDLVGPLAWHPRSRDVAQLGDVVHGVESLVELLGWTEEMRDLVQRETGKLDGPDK

[2] = molecular target: T2, NAD-dependent protein deacetylase sirtuin-1 (Homo sapiens) (UniProt Q96EB6); experiment: Inhibition of SIRT1 in human SH-SY5Y cells assessed as increase in acetylated p53 level at 10 uM measured after 72 hrs in presence of ATRA by Western blot analysis; format: cell-based
T2 sequence (whole entry): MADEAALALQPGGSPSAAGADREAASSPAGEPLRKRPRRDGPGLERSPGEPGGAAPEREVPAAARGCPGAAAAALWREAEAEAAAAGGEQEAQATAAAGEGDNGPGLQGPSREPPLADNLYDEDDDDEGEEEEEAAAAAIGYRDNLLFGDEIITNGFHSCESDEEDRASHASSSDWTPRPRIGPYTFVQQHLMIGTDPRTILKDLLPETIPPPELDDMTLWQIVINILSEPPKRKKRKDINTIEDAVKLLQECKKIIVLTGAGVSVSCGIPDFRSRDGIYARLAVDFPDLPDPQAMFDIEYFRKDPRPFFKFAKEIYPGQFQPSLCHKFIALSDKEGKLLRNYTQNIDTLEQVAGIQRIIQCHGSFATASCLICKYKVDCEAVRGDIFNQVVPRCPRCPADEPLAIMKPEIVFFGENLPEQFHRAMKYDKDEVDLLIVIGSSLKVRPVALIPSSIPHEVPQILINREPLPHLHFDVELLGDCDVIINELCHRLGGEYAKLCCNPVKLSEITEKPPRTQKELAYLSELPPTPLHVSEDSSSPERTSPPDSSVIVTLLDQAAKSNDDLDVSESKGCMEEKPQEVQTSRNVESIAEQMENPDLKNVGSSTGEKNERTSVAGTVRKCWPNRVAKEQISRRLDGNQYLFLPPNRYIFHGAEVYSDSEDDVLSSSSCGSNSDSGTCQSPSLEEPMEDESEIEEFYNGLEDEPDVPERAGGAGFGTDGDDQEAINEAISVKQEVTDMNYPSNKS

[3] = molecular target: NAD-dependent protein deacetylase sirtuin-1 (Homo sapiens, UniProt Q96EB6, F414A); experiment: Inhibition of N-terminal hexa-His-tagged human SIRT1 F414A mutant (156 to 664 residues) expressed in Escherichia coli BL21 (DE3) assessed as dissociation equilibrium constant using Abz-GVLKacAYNO2GY-NH2 as substrate in presence of varying level of NAD+ by Lineweaver-burk plot analysis
[4] = molecular target: NAD-dependent protein deacetylase sirtuin-1 (Homo sapiens, UniProt Q96EB6, I347A); experiment: Inhibition of N-terminal hexa-His-tagged human SIRT1 I347A mutant (156 to 664 residues) expressed in Escherichia coli BL21 (DE3) assessed as dissociation equilibrium constant using Abz-GVLKacAYNO2GY-NH2 as substrate in presence of varying level of NAD+ by Lineweaver-burk plot analysis
[5] = molecular target: NAD-dependent protein deacetylase sirtuin-1 (Homo sapiens, UniProt Q96EB6, N346A); experiment: Inhibition of N-terminal hexa-His-tagged human SIRT1 N346A mutant (156 to 664 residues) expressed in Escherichia coli BL21 (DE3) assessed as dissociation equilibrium constant using Abz-GVLKacAYNO2GY-NH2 as substrate in presence of varying level of NAD+ by Lineweaver-burk plot analysis
[6] = molecular target: NAD-dependent protein deacylase sirtuin-5, mitochondrial (Homo sapiens, UniProt Q9NXA8); experiment: Inhibition of N-terminal 8His-tagged human SIRT5 (34 to 302 residues) expressed in Escherichia coli Rosetta2 (DE3) using Abz-GVLKacAYNO2GY-NH2 peptide as substrate incubated for 30 mins in presence of NAD+ by fluorescence microplate reader assay; settings: read-out: IC50
[7] = molecular target: NAD-dependent protein deacetylase sirtuin-1 (Homo sapiens, UniProt Q96EB6, F273L); experiment: Inhibition of N-terminal hexa-His-tagged human SIRT1 F273L mutant (156 to 664 residues) expressed in Escherichia coli BL21 (DE3) assessed as dissociation equilibrium constant using Abz-GVLKacAYNO2GY-NH2 as substrate in presence of varying level of NAD+ by Lineweaver-burk plot analysis
[8] = molecular target: T2, NAD-dependent protein deacetylase sirtuin-1 (Homo sapiens); experiment: Non-competitive inhibition of N-terminal hexa-His-tagged human SIRT1 (156 to 664 residues) expressed in Escherichia coli BL21 (DE3) assessed as decrease in initial velocity V0 at 0.47 to 1.98 uM using Abz-GVLKacAYNO2GY-NH2 as substrate in presence of varying level of NAD+ by Lineweaver-burk plot analysis; settings: dose 0.47-1.98 µM
[9] = molecular target: T2, NAD-dependent protein deacetylase sirtuin-1 (Homo sapiens); experiment: Non-competitive inhibition of N-terminal hexa-His-tagged human SIRT1 (156 to 664 residues) expressed in Escherichia coli BL21 (DE3) assessed as effect on Km at 0.47 to 1.98 uM using Abz-GVLKacAYNO2GY-NH2 as substrate in presence of varying level of NAD+ by Lineweaver-burk plot analysis; settings: dose 0.47-1.98 µM
[10] = molecular target: T3, NAD-dependent protein deacetylase sirtuin-2 (Homo sapiens, UniProt Q8IXJ6); experiment: Inhibition of GST-fusion tagged human SIRT2 (34 to 356 residues) expressed in Escherichia coli BL21 (DE3) using Abz-GVLKacAYNO2GY-NH2 peptide as substrate incubated for 30 mins in presence of NAD+ by fluorescence microplate reader assay
T3 sequence (Q8IXJ6 whole entry): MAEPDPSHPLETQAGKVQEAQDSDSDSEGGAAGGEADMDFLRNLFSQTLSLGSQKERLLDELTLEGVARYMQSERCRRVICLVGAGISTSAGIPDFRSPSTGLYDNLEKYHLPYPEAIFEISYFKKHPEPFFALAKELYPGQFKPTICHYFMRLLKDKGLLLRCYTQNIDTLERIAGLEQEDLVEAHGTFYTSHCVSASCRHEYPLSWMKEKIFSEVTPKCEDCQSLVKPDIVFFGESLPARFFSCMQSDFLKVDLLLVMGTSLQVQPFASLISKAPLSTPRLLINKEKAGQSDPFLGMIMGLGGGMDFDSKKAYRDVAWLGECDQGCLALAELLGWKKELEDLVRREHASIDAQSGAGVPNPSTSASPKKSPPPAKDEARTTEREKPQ

[11] = molecular target: T4, NAD-dependent protein deacetylase sirtuin-1 (Homo sapiens, UniProt Q96EB6); experiment: Inhibition of N-terminal hexa-His-tagged human SIRT1 (156 to 664 residues) expressed in Escherichia coli BL21 (DE3) assessed as deacetylation of Abz-labeled acetyl peptide using Abz-GVLKacAYNO2GY-NH2 peptide as substrate incubated for 30 mins in presence of NAD+ by fluorescence microplate reader assay; settings: read-out: IC50
T4 sequence (Q96EB6 whole entry): T2 sequence (whole entry)

[12] = molecular target: T4, NAD-dependent protein deacetylase sirtuin-1; experiment: Inhibition of wild type N-terminal hexa-His-tagged human SIRT1 (156 to 664 residues) expressed in Escherichia coli BL21 (DE3) assessed as dissociation equilibrium constant using Abz-GVLKacAYNO2GY-NH2 as substrate in presence of varying level of NAD+ by Lineweaver-burk plot analysis
[13] = molecular target: NAD-dependent protein deacylase sirtuin-6 (Homo sapiens, UniProt Q8N6T7); experiment: Inhibition of recombinant N-terminal hexa-His-tagged SIRT6 (3 to 318 residues) (unknown origin) expressed in Escherichia coli BL21 (DE3) using RHKKac-AMC as substrate incubated for 2 hrs in presence of NAD+ by fluorescence microplate reader assay
[14] = molecular target: T2, NAD-dependent protein deacetylase sirtuin-1 (Homo sapiens); experiment: Mixed-type inhibition of N-terminal hexa-His-tagged human SIRT1 (156 to 664 residues) expressed in Escherichia coli BL21 (DE3) assessed as decrease in initial velocity V0 at 0.47 to 1.98 uM using varying levels Abz-GVLKacAYNO2GY-NH2 peptide as substrate in presence of NAD+ by Lineweaver-burk plot analysis; settings: dose 0.47-1.98 µM
[15] = molecular target: T2, NAD-dependent protein deacetylase sirtuin-1 (Homo sapiens); experiment: Mixed-type inhibition of N-terminal hexa-His-tagged human SIRT1 (156 to 664 residues) expressed in Escherichia coli BL21 (DE3) assessed as decrease in Km at 0.47 to 1.98 uM using varying levels Abz-GVLKacAYNO2GY-NH2 peptide as substrate in presence of NAD+ by Lineweaver-burk plot analysis; settings: dose 0.47-1.98 µM
[16] = Inhibition of N-terminal hexa-His-tagged human SIRT1 D348A mutant (156 to 664 residues) expressed in Escherichia coli BL21 (DE3) assessed as dissociation equilibrium constant using Abz-GVLKacAYNO2GY-NH2 as substrate in presence of varying level of NAD+ by Lineweaver-burk plot analysis
[17] = molecular target: T4, NAD-dependent protein deacetylase sirtuin-1; experiment: Inhibition of His-tagged SIRT1 (unknown origin) expressed in Escherichia coli codon plus (DE3) using acetylated p53 as substrate

Chain of NAD-dependent protein deacetylase sirtuin-1 (Homo sapiens, UniProt Q96EB6, N346A) (Q96EB6 2-747 N346A limits assumed): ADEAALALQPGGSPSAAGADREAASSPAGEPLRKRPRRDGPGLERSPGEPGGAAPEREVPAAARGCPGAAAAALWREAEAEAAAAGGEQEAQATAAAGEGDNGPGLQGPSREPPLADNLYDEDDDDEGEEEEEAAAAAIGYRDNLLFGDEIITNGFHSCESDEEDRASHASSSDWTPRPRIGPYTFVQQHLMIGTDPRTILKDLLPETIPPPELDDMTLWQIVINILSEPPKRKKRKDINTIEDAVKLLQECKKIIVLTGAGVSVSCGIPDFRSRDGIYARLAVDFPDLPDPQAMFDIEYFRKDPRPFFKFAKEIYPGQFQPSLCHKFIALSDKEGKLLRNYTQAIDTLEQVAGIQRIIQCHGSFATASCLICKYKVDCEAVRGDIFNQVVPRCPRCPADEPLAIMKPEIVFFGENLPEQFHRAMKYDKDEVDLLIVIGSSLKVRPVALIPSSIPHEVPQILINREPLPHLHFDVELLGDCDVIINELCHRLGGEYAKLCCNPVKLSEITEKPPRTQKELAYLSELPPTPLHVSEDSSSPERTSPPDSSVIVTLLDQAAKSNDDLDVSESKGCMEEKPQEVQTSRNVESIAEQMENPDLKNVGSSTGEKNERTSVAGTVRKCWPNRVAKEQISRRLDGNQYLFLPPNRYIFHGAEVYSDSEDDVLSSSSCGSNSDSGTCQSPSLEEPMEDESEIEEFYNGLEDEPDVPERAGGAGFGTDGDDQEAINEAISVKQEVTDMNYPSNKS
Chain of NAD-dependent protein deacetylase sirtuin-1 (Homo sapiens, UniProt Q96EB6, I347A) (Q96EB6 2-747 I347A limits assumed): as the sequence (Q96EB6 2-747 N346A limits assumed) above, with A345N, I346A counted along it
Chain of NAD-dependent protein deacylase sirtuin-6 (Q8N6T7 whole entry, the tested form may be a part): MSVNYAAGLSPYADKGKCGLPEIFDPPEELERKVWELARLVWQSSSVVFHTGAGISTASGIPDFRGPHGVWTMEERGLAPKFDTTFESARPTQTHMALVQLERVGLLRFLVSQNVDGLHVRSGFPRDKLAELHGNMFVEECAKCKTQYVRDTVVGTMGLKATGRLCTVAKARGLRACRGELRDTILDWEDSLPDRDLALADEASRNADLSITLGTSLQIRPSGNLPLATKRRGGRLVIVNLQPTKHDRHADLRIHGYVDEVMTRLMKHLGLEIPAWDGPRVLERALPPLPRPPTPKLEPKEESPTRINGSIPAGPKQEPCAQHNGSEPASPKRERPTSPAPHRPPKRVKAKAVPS
Chain of NAD-dependent protein deacetylase sirtuin-1 (Homo sapiens, UniProt Q96EB6, F273L) (Q96EB6 2-747 F273L limits assumed): as the sequence (Q96EB6 2-747 N346A limits assumed) above, with F272L, A345N counted along it
Chain of NAD-dependent protein deacylase sirtuin-5, mitochondrial (Q9NXA8 whole entry, the tested form may be a part): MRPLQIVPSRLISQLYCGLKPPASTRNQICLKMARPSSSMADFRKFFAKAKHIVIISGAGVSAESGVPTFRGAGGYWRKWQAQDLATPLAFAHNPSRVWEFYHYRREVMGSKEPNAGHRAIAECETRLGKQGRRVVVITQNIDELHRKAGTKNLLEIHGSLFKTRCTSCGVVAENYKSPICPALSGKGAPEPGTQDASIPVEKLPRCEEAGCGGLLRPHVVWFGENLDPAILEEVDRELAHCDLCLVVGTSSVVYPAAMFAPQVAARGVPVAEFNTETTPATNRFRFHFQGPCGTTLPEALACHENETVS
Chain of NAD-dependent protein deacetylase sirtuin-1 (Homo sapiens, UniProt Q96EB6, F414A) (Q96EB6 2-747 F414A limits assumed): as the sequence (Q96EB6 2-747 N346A limits assumed) above, with A345N, F413A counted along it

IC50 [1]: 22 µM
SMILES: CC1=CCC(C(=O)/N=C2\CC=C(S(=O)(=O)O)c3cc(S(=O)(=O)O)cc(S(=O)(=O)O)c32)=C/C1=N/C(=O)C1=CC=C/C(=N\C(=O)/N=C2\C=CC=C(C(=O)/N=C3/CC(C(=O)/N=C4\CC=C(S(=O)(=O)O)c5cc(S(=O)(=O)O)cc(S(=O)(=O)O)c54)=CC=C3C)C2)C1

increase in acetylated p53 level (qualitative) [2]: Active | Ki [3]: 18.2 µM | Ki [4]: 0.71 µM | Ki [5]: 1.94 µM | IC50 [6]: 19.8 µM | Ki [7]: 0.65 µM | inhibition [8]: Active | inhibition [9]: Active | IC50 [10]: 54 µM | IC50 [11]: 1.31 µM | Ki [12]: 0.1 µM | IC50 [13]: Not Active | inhibition [14]: Active | inhibition [15]: Active
SMILES: COc1cc(C=C2C(=O)OC(c3ccccc3)OC2=O)cc(Br)c1O (configuration not stated)
Ki [16]: 7.06 µM

IC50 [17]: 0.1 µM
SMILES: CCC(Sc1nnc2c(n1)[nH]c1ccccc12)C(=O)N1c2ccccc2Sc2ccccc21 (configuration not stated)

— ChEMBL document CHEMBL4680375 (ACS Med Chem Lett, 2021)
